What was measured:
[1] = Critical micelle concentration (fluorescent dye solubilization); format: physicochemical
Text: The “Critical Micelle Concentration” (CMC) refers to the concentration of a detergent (e.g., an amphiphile as described herein) in an aqueous solution at which the detergent molecules self-assemble into micelles. Below the CMC, detergents are mostly monomeric; above the CMC, micelle concentration increases linearly with detergent concentration. The CMC is dependent upon many factors and is detergent-specific. The CMC of a detergent can be determined experimentally by measuring the solubilization of a water-insoluble dye or fluorophore while varying the concentration of detergent. A CMC may also be determined by measuring the diminution of the surface tension of an aqueous solution as a function of detergent concentration (CMCs determined by either method correlate with each other). The CMC is determined by extrapolating the plot of solubilization vs. concentration (or surface tension vs. concentration) in the two linear regions above and below the CMC. Where the two lines intersect is the CMC. The CMC can also be determined by the method of Nugebauer, J. M. (1990), Methods in Enzymology, 182:239-253.
The four compounds were readily prepared on a multi-gram scale (see Examples 1 and 2 below, and FIGS. 13-15), as is necessary if they are to serve as research tools. All four are highly soluble in aqueous solution (>20 wt %) and have relatively low critical micelle concentrations (CMC; determined by fluorescent dye solubilization).

[2] = Hydrodynamic radius of micelles by dynamic light scattering; format: physicochemical; conditions: Mean ± SD, n = 5
Text: These values are somewhat smaller than the CMC of DDM, which indicates a strong tendency of the new agents to self-assemble, and which can be advantageous for IMP handling because detrimental levels of non-micellar amphiphile can be avoided. Table 1 provides the hydrodynamic radius (Rh) of the micelles formed by each amphiphile, as determined by dynamic light scattering (DLS). The micelles formed by GLC amphiphiles are slightly smaller than those formed by DDM, while the micelles formed by GDN are slightly larger.

[3] = system: R. capsulatus LHI-RC superassembly; assay: R. capsulatus LHI-RC superassembly stability (A875/A680); parameters: species or system Rhodobacter capsulatus; conditions: CMC+0.04 wt %, RT, 875 nm/680 nm absorbance ratio
Description: Next a more challenging system, the photosynthetic superassembly from Rhodobacter capsulatus (Laible et al., Biochemistry 2003, 42, 1718-1730), was analyzed. This photosynthetic superassembly contains the light harvesting I (LHI) complex and the reaction center (RC) complex. The superassembly contains >30 protein molecules; integrity can be assessed based on the 875 nm/680 nm absorbance ratio (Chae et al., ChemBioChem 2008, 9, 1706-1709). The superassembly was extracted from the native membrane with 1.0 wt % DDM and purified with DDM at its CMC (0.009 wt %). […]
The stability of R. capsulatus superassembly was assessed according to the protocol described by Chae and coworkers (J. Am. Chem. Soc. 2010, 132, 16750-16752).
For the stability assay, DDM-solubilized material was transferred into a new microcentrifuge tube containing Ni-NTA resin (Qiagen, Inc.; Valencia, Calif.; pre-equilibrated and stored in an equal volume of buffer containing 10 mM Tris, pH 7.8, and 100 mM NaCl). After a 1 h incubation at 4° C. for binding, the resins were washed twice with 0.5 mL of binding buffer (a pH 7.8 Tris solution containing DDM at 1×CMC) and eluted three times with 0.20 mL elution buffer aliquots containing 1 M imidazole (otherwise, this buffer was identical to binding buffer; the pH of each solution was readjusted to pH=7.8). […]

β2AR-T4L = β2AR-T4L thermostability (Tm, carazolol fluorescence); parameters: species or system human; conditions: for β2AR-T4L Tm comparison at higher concentrations: higher concentrations than CMC+0.05 wt %
Description: To assess the new amphiphiles with a GPCR, a human 132 adrenergic receptor-T4-lysozyme fusion protein (β2AR-T4L) was used (Rosenbaum et al., Science 2007, 318, 1266-1273). Stability was assessed via […] of β2AR-T4L bound to the inverse agonist carazolol. β2AR-T4L was initially solubilized and purified with DDM, and this detergent was then exchanged for the agent to be evaluated. The fluorescence emission maximum of carazolol occurs at 356 nm in aqueous solution, but emission is shifted to 341 nm in the receptor-bound state. The 341:356 nm peak intensity ratio was used to monitor the relative amounts of intact and denatured β2AR-T4L, with Tm defined as the temperature at which the 341:356 nm peak intensity ratio is half-way between that of fully native receptor and the fully denatured receptor.
Stability of β2AR-T4L was assessed by measuring the melting temperature (Tm) of the receptor according to the procedure reported by Chae and coworkers (Nat. Methods 2010, 7, 1003-1008).
A receptor fusion protein of T4 lysozyme inserted in the 3rd intracellular loop of the β2AR^4 was cloned into BestBac baculovirus (Expression Systems, CA) and expressed in Sf9 insect cell cultures. The receptor was solubilized and purified in DDM as previously described (Kobilka, Anal. Biochem. 1995, 231, 269-271). […]
For stability measurements the carazolol-bound receptor was diluted below the CMC for DDM by adding 3 μL of the concentrated receptor in a quartz cuvette containing 600 μL buffer (100 mM NaCl, 20 mM HEPES, pH 7.5) with amphiphiles at various concentrations above their CMC. […] Fluorescence emission from carazolol was obtained following 5 min incubations from 25 to 85° C. in twelve continuous 5° C. increments. Excitation was set at 325 nm, and emission was measured from 335 to 400 nm with an integration time of 0.3 s nm-1 using a bandpass of 1 nm for both excitation and emission. The 341:356 nm peak ratio was calculated and graphed using Microsoft Excel and GraphPad Prism software.

| Structure (SMILES) | CMC [1] [µM] | CMC (wt %) [1] [wt %] | Rh (nm), hydrodynamic radius of micelles [2] [nm] | LHI-RC superassembly stability over 20 days relative to DDM or OG [3] | β2AR-T4L Tm comparison at higher concentrations (β2AR-T4L) | β2AR-T4L Tm comparison at relatively low concentrations (β2AR-T4L; <CMC+0.05 wt %) |
| --- | --- | --- | --- | --- | --- | --- |
| CO[C@@H]1CC[C@@]2(C)[C@H](CC[C@@H]3[C@@H]2CC[C@]2(C)[C@@H]([C@H](C)CCCOCC(C)(CO[C@@H]4OC(CO)C(O[C@@H]5OC(CO)[C@@H](O)[C@H](O)C5O)[C@@H](O)C4O)CO[C@@H]4OC(CO)[C@@H](O[C@H]5OC(CO)[C@@H](O)[C@H](O)C5O)[C@H](O)C4O)CC[C@@H]32)C1 (some centres unmarked) [GLC-2] | ~8.0 | ~0.0009 | 3.32 ± 0.04 | substantially more stable | superior to DDM | – |
| C[C@@H]1CC[C@@]2(OC1)O[C@H]1C[C@H]3[C@@H]4CC=C5C[C@@H](OCCC(CO[C@@H]6OC(CO)[C@@H](O[C@H]7OC(CO)[C@@H](O)C(O)C7O)C(O)C6O)CO[C@@H]6OC(CO)[C@@H](O[C@H]7OC(CO)[C@@H](O)C(O)C7O)C(O)C6O)CC[C@]5(C)[C@H]4CC[C@]3(C)[C@@H]1[C@@H]2C (some centres unmarked) [GDN, glyco-diosgenin] | ~18 | ~0.0021 | 3.86 ± 0.05 | substantially more stable | superior to DDM | – |
| CCCCCCCCCCCCO[C@@H]1O[C@H](CO)[C@@H](O[C@H]2O[C@H](CO)[C@@H](O)[C@H](O)[C@H]2O)[C@H](O)[C@H]1O [DDM, dodecyl-β-D-maltoside, reference compound] | ~170 | ~0.0087 | 3.42 ± 0.03 | – | – | superior to the new amphiphiles |

— patent publication US9556217B2, “Amphiphilic compounds” (WISCONSIN ALUMNI RESEARCH FOUNDATION, priority 2012, dated 2017)
